Consider seven compounds from patent US8022038B2, “Composition for acceleration of type I collagen production” (Fancl Corporation, priority 2005, dated 2011).

The experiment has as its system three-dimensional human skin model (type I collagen production). The experiment in a line: Type I collagen production in three-dimensional human skin model (TESTSKIN LSE-high), Western blotting with imaging analysis. The class given is cell-based. How it is done:
Three-dimensional human skin models are widely used in safety evaluation and effectiveness evaluation as a simulated model of human skin. In this test, TESTSKIN (LSE-high) (Toyobo Co., Ltd.) was used as a three-dimensional human skin model.
A culture medium was added to the outer well of TESTSKIN (LSE-high) and cultured for 24 hours. Thereafter, the culture solution was changed and each agent was added by 100 μl onto the tissues in the assay ring, after which the medium was cultured for 36 hours. Thereafter, the tissues were collected and a tissue extraction solution (50 mM Tris-HCl (pH 7.5), 0.5% (Octylphenoxy) polyethoxyethanol (Sigma-Aldrich Corp.)) was added, and then the mixture was homogenized using a homogenizer made of fluorocarbon resin. The homogenized mixture was centrifuged for 30 minutes at 10,000×G to remove tissue fragments, and then dialyzed overnight in distilled water at 4° C. Thereafter, the dialyzed mixture was freeze-dried to remove water. A tissue extraction solution was added to obtain a x20 concentrate, and this concentrate was used in Western blotting as a three-dimensional skin model extract sample.
Using a three-dimensional human skin model extract sample, 10 μg of protein was applied per lane, after which the sample was separated via SDS-PAGE and the result was transferred onto nitrocellulose membranes. The transferred nitrocellulose membranes were soaked in a blocking solution (solution prepared by dissolving skim milk in a PBS containing 0.1% polyoxyethylene (20) sorbitan monolaurate to achieve a concentration of 5%) and blocked for one whole day at 4° C. The blocked membranes were washed with a washing solution (PBS containing 0.1% polyoxyethylene (20) sorbitan monolaurate) and then soaked in a primary antibody (polyclonal antibody of type I collagen (Rockland Inc.) adjusted to 500 ng/ml using a washing solution) to cause reaction for 1 hour at room temperature. The reacted membranes were washed and then soaked in a secondary antibody (horseradish peroxidase labeled anti-rabbit immunoglobulin G adjusted to 250 ng/ml using a washing solution) to cause reaction for 1 hour at room temperature. The reacted membranes were washed and then detection was performed using an ECL plus Western blotting detection reagent (Amersham Biosciences Inc.). The detected band was also scanned into an image scanner (Amersham Biosciences Inc.) and analyzed using image master software (Amersham Biosciences Inc.) for conversion to numerical values.

Where [1] appears, read: 10 μM, 36 h treatment, Example 1, FIGS. 1 and 2.
Where [2] appears, read: 10 μM alone, Example 3, FIGS. 9 and 10.
The mark [3] stands for this setting: 10 μM, Example 3, FIGS. 7 and 8.
The mark [4] stands for this setting: 30 μM, Example 3, FIGS. 7 and 8.

Non-standard residues stand in square brackets, D forms with d. No end group written: not given here. Hyp = O=C(O)[C@@H]1C[C@@H](O)CN1

In the case of `COc1cc([C@@H]2Oc3c(O)cc([C@H]4Oc5cc(O)cc(O)c5C(=O)[C@@H]4O)cc3[C@H]2CO)ccc1O` [silychristin], the “type I collagen production compared to the level in the untreated control” value under setting [1] came to 0.95 times.

Take “Gly-Glu-Pro-Arg (GEPR) [peptide derived from an immunoglobulin G decomposition product, synthesized]”: the “type I collagen production compared to the level in the untreated control” value runs as follows: under setting [2], 2.10 times; under setting [3], 2.15 times; under setting [4], 3.55 times.

Gly-His-Lys: the “type I collagen production compared to the level in the untreated control” value is given as 1.75 times under setting [2], 1.75 times under setting [3] and 2.70 times under setting [4].

With “Lys-Thr-Thr-Lys-Ser (KTTKS) [pentapeptide derived from an α1 collagen decomposition product, synthesized]”, the “type I collagen production compared to the level in the untreated control” value under setting [2] stood at 1.80 times, the “type I collagen production compared to the level in the untreated control” value under setting [3] is on record as 1.80 times and the “type I collagen production compared to the level in the untreated control” value under setting [4] is 2.45 times.

For `COc1cc(C2Oc3cc([C@H]4Oc5cc(O)cc(O)c5C(=O)[C@@H]4O)ccc3OC2CO)ccc1O` (stereo partly drawn) [silybin], the “type I collagen production compared to the level in the untreated control” value by setting is: (5 μM alone, Example 3, FIGS. 9 and 10) 1.95 times; (5 μM used alone, Example 2, FIGS. 5 and 6) 1.85 times; under setting [1], 3.2 times.

For `COc1cc([C@@H]2[C@H]3CO[C@@]4(O)C(=O)[C@@H]2C=C([C@H]2Oc5cc(O)cc(O)c5C(=O)[C@@H]2O)[C@@H]34)ccc1O` [silydianin], under setting [1], the “type I collagen production compared to the level in the untreated control” value turned out to be 0.9 times.

As to Gly-Pro-[Hyp], the “type I collagen production compared to the level in the untreated control” value reads like this: (5 μM, Example 2, FIGS. 3 and 4) 1.05 times; (10 μM, Example 2, FIGS. 3 and 4) 1.15 times; (30 μM used alone, Example 2, FIGS. 5 and 6) 1.25 times; (30 μM, Example 2, FIGS. 3 and 4) 1.25 times.
